# Literature values as cited in patent publication US20110111002A1, “TRANSPORT AND DELIVERY OF GLUTATHIONE INTO HUMAN CELLS USING GOLD NANOPARTICLES” (priority 2009, published 2011).
# Experiments:
# [1] = system: intracellular glutathione concentration; details: versus the three component amino acids (precursors)
# [2] = system: cell type tested; details: irrespective of the cell type tested
# [3] = humans, injectable
compound,measurement,setting,value
"N[C@@H](CCC(=O)N[C@@H](CS)C(=O)NCC(=O)O)C(=O)O [GSH, L-gammaglutamyl-L-cysteinylglycine]",efficiency in raising the intracellular glutathione concentration compared to the precursors,[1],three times more efficient
O=C([O-])CC([S-])C(=O)[O-].[Au+].[Na+].[Na+] (stereo not drawn) [Tauredon],toxicity,[2],comparatively nontoxic
O=C([O-])CC([S-])C(=O)[O-].[Au+].[Na+].[Na+] (stereo not drawn) [Myochrisine],tolerance of high concentrations,[3],excellent tolerance
